Assay results as given in US20210396743A1 (priority 2020, published 2021).
“Also recorded” adds a separate entry of the source. Read-outs that look alike come from different tables or passages of the source. Residues, ends and D or L forms follow the SMILES beside them.

Key:
[1] = target: T1, SdeA181-1000 (Legionella pneumophila subsp. pneumophila, UniProt Q5ZTK4); format: biochemical, L. pneumophila
[2] = target: SdeA (Legionella pneumophila subsp. pneumophila, UniProt Q5ZTK4); conditions: cited from earlier work
[3] = test system: SdeA; format: biochemical, L. pneumophila; conditions: 100 μM analogue, 100 μM ubiquitin, 0.5 μM enzyme, emission 410 nm
[4] = target: T1, SdeA181-1000; format: biochemical, L. pneumophila; remark: listed apart in the source
[5] = target: T1, SdeA181-1000; format: biochemical, L. pneumophila; remark: listed apart in the source

T1 sequence (Q5ZTK4 181-1000 limits assumed): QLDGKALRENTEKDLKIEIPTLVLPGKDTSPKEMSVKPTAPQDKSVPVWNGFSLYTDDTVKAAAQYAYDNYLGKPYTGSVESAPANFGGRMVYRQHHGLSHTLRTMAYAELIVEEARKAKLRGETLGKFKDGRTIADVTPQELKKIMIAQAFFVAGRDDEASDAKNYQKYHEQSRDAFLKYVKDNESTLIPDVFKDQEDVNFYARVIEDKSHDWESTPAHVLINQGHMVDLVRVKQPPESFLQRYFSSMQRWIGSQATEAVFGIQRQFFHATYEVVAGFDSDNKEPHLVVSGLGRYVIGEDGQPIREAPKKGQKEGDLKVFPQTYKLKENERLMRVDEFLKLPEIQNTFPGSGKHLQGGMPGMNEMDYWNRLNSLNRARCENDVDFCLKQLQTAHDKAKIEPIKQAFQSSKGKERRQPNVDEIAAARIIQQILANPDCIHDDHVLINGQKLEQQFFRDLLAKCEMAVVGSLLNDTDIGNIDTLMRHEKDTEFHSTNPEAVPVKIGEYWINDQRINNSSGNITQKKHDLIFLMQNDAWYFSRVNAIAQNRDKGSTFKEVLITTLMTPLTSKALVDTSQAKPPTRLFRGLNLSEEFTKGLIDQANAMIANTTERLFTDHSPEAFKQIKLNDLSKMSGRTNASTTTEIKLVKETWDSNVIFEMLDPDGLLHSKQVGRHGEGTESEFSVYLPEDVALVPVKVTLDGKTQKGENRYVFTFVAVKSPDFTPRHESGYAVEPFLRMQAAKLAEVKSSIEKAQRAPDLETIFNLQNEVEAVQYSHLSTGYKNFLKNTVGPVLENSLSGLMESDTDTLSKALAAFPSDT
Chain of SdeA (Legionella pneumophila subsp. pneumophila, UniProt Q5ZTK4) (Q5ZTK4 whole entry, looked up): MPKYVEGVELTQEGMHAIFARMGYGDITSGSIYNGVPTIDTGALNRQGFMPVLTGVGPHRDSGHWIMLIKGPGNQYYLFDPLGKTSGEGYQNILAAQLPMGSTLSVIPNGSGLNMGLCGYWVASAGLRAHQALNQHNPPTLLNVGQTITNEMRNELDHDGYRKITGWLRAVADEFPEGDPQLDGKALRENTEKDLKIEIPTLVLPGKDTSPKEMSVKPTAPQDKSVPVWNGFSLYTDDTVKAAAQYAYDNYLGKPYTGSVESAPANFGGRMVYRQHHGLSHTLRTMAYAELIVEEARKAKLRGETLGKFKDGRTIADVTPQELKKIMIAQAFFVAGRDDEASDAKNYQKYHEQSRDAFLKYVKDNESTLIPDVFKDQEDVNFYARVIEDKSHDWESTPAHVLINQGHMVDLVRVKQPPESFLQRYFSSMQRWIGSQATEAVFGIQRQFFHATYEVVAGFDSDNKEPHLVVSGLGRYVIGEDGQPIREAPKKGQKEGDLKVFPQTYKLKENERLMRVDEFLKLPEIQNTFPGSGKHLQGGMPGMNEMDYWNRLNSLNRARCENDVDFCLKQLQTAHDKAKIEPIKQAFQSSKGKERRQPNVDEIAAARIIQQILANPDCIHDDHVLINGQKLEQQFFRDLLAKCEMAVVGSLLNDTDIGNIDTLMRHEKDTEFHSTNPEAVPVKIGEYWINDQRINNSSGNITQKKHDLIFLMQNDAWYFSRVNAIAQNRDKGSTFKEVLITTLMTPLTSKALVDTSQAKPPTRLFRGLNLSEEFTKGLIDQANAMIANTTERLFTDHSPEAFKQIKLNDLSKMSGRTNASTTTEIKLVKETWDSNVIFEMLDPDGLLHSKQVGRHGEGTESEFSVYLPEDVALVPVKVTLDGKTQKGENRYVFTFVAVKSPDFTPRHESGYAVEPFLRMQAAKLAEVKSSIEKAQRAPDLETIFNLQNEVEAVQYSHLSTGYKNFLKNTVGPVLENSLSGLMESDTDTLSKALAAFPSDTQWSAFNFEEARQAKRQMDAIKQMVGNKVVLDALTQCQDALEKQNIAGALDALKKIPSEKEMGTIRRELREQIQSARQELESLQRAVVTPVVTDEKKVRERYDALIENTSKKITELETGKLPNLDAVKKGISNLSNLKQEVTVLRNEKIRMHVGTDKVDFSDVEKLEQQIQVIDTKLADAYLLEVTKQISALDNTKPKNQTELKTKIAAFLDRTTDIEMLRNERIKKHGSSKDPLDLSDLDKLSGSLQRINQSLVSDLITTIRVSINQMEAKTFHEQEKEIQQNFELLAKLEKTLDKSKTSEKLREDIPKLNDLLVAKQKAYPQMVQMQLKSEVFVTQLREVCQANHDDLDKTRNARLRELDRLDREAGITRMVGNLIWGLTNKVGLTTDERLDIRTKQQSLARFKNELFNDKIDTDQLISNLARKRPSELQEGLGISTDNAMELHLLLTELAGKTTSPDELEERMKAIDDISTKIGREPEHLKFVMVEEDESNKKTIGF

SMILES: Nc1ncnc2c1ncn2[C@@H]1O[C@H](COP(=O)(O)OP(=O)(O)OC[C@H]2OC(O)[C@H](O)[C@@H]2O)[C@@H](O)[C@H]1O (some centres unmarked) [ADP-ribose]
- inhibition of peptide ubiquitination [1]: inhibition of peptide ubiquitination; also recorded: impairment of peptide ubiquitination

SMILES: Nc1ncnc2c1ncn2[C@@H]1O[C@H](COP(=O)(O)O)[C@@H](O)[C@H]1O [AMP, adenosine monophosphate]
- inhibitor of SdeA-catalyzed ubiquitination (previous study) [2]: weak inhibitor
- inhibition of peptide ubiquitination [1]: inhibition of peptide ubiquitination; also recorded: impairment of peptide ubiquitination

SMILES: NC(=O)c1ccc[n+]([C@@H]2O[C@H](COP(=O)(O)OP(=O)([O-])OC[C@H]3O[C@@H](c4snc5c(N)ncnc45)C(O)C3O)C(O)C2O)c1 (some centres unmarked) [N^tzAD^+]
- fluorescence increase on incubation with SdeA and Ub ([3]; listed as NtzAD+): lower fold increase in fluorescence intensity

SMILES: CSCC[C@H](NC(=O)c1ccc(-c2c3ccc(=O)cc-3oc3cc(O)ccc23)c(C(=O)O)c1)C(=O)N[C@@H](CO)C(=O)N[C@@H](CO)C(=O)N[C@@H](CCSC)C(=O)N[C@@H](CC(N)=O)C(=O)N1CCC[C@H]1C(=O)N[C@@H](CCC(=O)O)C(=O)N[C@@H](Cc1ccc(O)cc1)C(=O)N[C@@H](CC(=O)O)C(N)=O [peptide] (HELM PEPTIDE1{[O=C(O)c1cc(C(=O)[*:2])ccc1-c1c2ccc(=O)cc-2oc2cc(O)ccc12].M.S.S.M.N.P.E.Y.D.[am]}$$$$V2.0)
- ubiquitination of peptide by SdeA (fluorescence polarization) [4]: significant increase in FP
- Km ([4]; read-out: apparent KM): ~80 µM
- in-gel fluorescence of ubiquitinated peptide (SDS-PAGE) [5]: presence of a fluorescent band around 10 kDa

SMILES: NC(=O)c1ccc[n+]([C@@H]2O[C@H](COP(=O)([O-])OP(=O)([O-])OC[C@H]3O[C@@H](n4cnc5c4nc[n+]4cc[nH]c54)C(O)[C@H]3O)[C@H](O)C2O)c1 (some centres unmarked) [εNAD^+, nicotinamide 1,N6-ethenoadenine dinucleotide]
- fluorescence increase on incubation with SdeA and Ub [3]: increase in fluorescence emission at 410 nm
